Assay results taken from US20160002226A1, “PYRI[…] AND THEIR USE IN THE TREATMENT, AMELIORATION OR PREVENTION OF INFLUENZA” (F. Hoffmann-La Roche AG, priority 2014, published 2016).

Assays:
[1] = system: influenza A virus A/Aichi/2/68 (H3N2) on MDCK cells; assay: Cytopathic effect (CPE) assay; type: cell-based; settings: Influenza A virus, 48 hrs, the 1st table
[2] = molecular target: T1, influenza A virus (IAV) PA-Nter fragment (amino acids 1-209) (Influenza A virus, UniProt P31343); assay: FRET endonuclease activity assay; type: biochemical; settings: PA-Nter 0.5 μM, 1.6 μM RNA substrate
T1 construct: PA-Nter fragment (amino acids 1-209); made in house

Compound | IC50 [1] | IC50 [2] | FRET IC50 [2]
CN1CCn2c(CNS(=O)(=O)c3ccccc3)cc(=O)c(O)c2C1=O | > 50000 nM | 27 nM | –
CC(C)N1CCn2c(CNS(=O)(=O)c3ccccc3)cc(=O)c(O)c2C1=O | > 50000 nM | 130 nM | –
CC(C)N1CCn2c(CNS(=O)(=O)c3ccccc3Cl)cc(=O)c(O)c2C1=O | > 50000 nM | 87 nM | –
CC(C)N1CCn2c(CNS(=O)(=O)c3cccc(Cl)c3)cc(=O)c(O)c2C1=O | > 50000 nM | 62 nM | –
CC(C)N1CCn2c(CNS(=O)(=O)c3ccc(Cl)cc3)cc(=O)c(O)c2C1=O | > 50000 nM | 209 nM | –
CC(C)N1CCn2c(CNS(=O)(=O)c3cccc(F)c3)cc(=O)c(O)c2C1=O | > 50000 nM | 153 nM | –
CC(C)N1CCn2c(CNS(=O)(=O)c3ccccc3F)cc(=O)c(O)c2C1=O | > 50000 nM | 104 nM | –
CC(C)N1CCn2c(CNS(=O)(=O)c3ccc(C#N)cc3)cc(=O)c(O)c2C1=O | > 50000 nM | 322 nM | –
Cc1ccc(S(=O)(=O)NCc2cc(=O)c(O)c3n2CCN(C(C)C)C3=O)cc1 | > 50000 nM | 203 nM | –
CC(C)N1CCn2c(CNS(=O)(=O)Cc3ccc(Cl)cc3)cc(=O)c(O)c2C1=O | > 50000 nM | 603 nM | –
CC(C)N1CCn2c(CNS(=O)(=O)Cc3ccccc3)cc(=O)c(O)c2C1=O | > 50000 nM | 187 nM | –
CC(C)N1CCn2c(CNS(=O)(=O)c3c(Cl)cccc3Cl)cc(=O)c(O)c2C1=O | > 50000 nM | 119 nM | –
CC(C)N1CCn2c(CN(Cc3ccccc3)c3ccccc3)cc(=O)c(O)c2C1=O | – | 1180 nM | –
CCCN(Cc1cc(=O)c(O)c2n1CCN(C(C)C)C2=O)C(C)=O | > 50000 nM | – | –
CCCN(Cc1cc(=O)c(O)c2n1CCN(C(C)C)C2=O)C(=O)C1CC1 | > 50000 nM | – | –
CCCN(Cc1cc(=O)c(O)c2n1CCN(C(C)C)C2=O)C(=O)c1ccccc1 | > 50000 nM | – | –
CCCN(Cc1cc(=O)c(O)c2n1CCN(C(C)C)C2=O)C(=O)C1CCCCC1 | > 50000 nM | – | –

Compound | IC50 [1] | IC50 [2] | FRET IC50 [2]
CC(C)N1CCn2c(CNC(=O)C3CC(F)(F)C3)cc(=O)c(O)c2C1=O | > 50000 nM | – | –
CC(C)N1CCn2c(CNC3(c4ccccc4)CCCC3)cc(=O)c(O)c2C1=O | > 50000 nM | – | –
CC(C)N1CCn2c(CN(Cc3cccc4ccccc34)C3CC3)cc(=O)c(O)c2C1=O | > 50000 nM | – | –
CC(C)N1CCn2c(CN(Cc3ccccc3-c3ccccc3)C3CC3)cc(=O)c(O)c2C1=O | > 50000 nM | – | –
CC(C)N1CCn2c(CNC(=O)c3ccccc3)cc(=O)c(O)c2C1=O | > 50000 nM | – | insoluble
CC(C)N1CCn2c(CNC(=O)CC3CC3)cc(=O)c(O)c2C1=O | > 50000 nM | 300 nM | –
CC(C)N1CCn2c(CNC(=O)CC(F)(F)F)cc(=O)c(O)c2C1=O | > 50000 nM | 320 nM | –
CC(C)N1CCn2c(CNC(=O)CCC(F)(F)F)cc(=O)c(O)c2C1=O | > 50000 nM | 250 nM | –
CC(C)N1CCn2c(CNC(=O)CC34C[C@H]5C[C@@H](C3)C[C@@H](C4)C5)cc(=O)c(O)c2C1=O | > 50000 nM | 1680 nM | –
CC(C)N1CCn2c(CNC(=O)C34CCC(CO)(CC3)CC4)cc(=O)c(O)c2C1=O | > 50000 nM | 1870 nM | –
CC(C)N1CCn2c(CNC(=O)C3(c4ccc(Cl)cc4)CCCC3)cc(=O)c(O)c2C1=O | > 50000 nM | 840 nM | –
CC(C)N1CCn2c(CNC(=O)c3ccc(C#N)cc3)cc(=O)c(O)c2C1=O | > 50000 nM | 400 nM | –
CC(C)N1CCn2c(CNC(=O)c3ccc(C(F)(F)F)cc3)cc(=O)c(O)c2C1=O | > 50000 nM | 9450 nM | –
CC(C)N1CCn2c(CNC(=O)[C@]34C[C@H]5C[C@H](C[C@H](C5)C3)C4)cc(=O)c(O)c2C1=O | > 50000 nM | 1430 nM | –
CC(C)N1CCn2c(CNC(=O)CC(C)(C)C)cc(=O)c(O)c2C1=O | > 50000 nM | 380 nM | –
CC(C)N1CCn2c(CNC(=O)C3CCCCC3)cc(=O)c(O)c2C1=O | > 50000 nM | 360 nM | –
CC(C)N1CCn2c(CNC(=O)C3CC3)cc(=O)c(O)c2C1=O | > 50000 nM | 350 nM | –
